Experiments:
[1] = system: New Zealand white rabbits; assay: Intraocular pressure (IOP) after topical application to the rabbit eye; format: in vivo; settings: for effect on IOP (result in words): 1% or 2% topical, rabbit; for IOP: mean ± S.E.
[2] = system: New Zealand white rabbits; assay: Pupil diameter / mydriasis after topical application to the rabbit eye; format: in vivo; settings: for mydriasis / pupil diameter (result in words): 1% or 2% topical, rabbit; for Pupil Diameter: mean ± S.E.
Method: These diastereomers were administered topically as either 1% or 2% solutions in buffered saline. Pupillary diameter and IOP were measured in all animals over a six hour time period during the day to minimize diurnal variations in IOP and pupil diameter.
The experiments were performed on adult male New Zealand white rabbits weighing 3.0–6.0 kg. All rabbits were caged individually and maintained on a 12 hr/12 hr light/dark schedule with free access to food and water. All animal procedures were in conformity with the ARVO Resolution on the Use and Care of Animals in Research. All treated rabbits had served as controls by having received a saline treatment on a different day.
Only one eye received drug treatment. The contralateral eye served as a control. Saline (or PBS) and drug treated rabbits were treated and observed simultaneously. A single dose was given at time zero and IOP and pupil diameter measured at −1.0, −0.5, 0.5, 1, 3 and 5 hrs post-treatment.
Pupil diameter was measured visually at the point of the greatest horizontal diameter with a transparent millimeter ruler. All measurements were made under the identical ambient lighting conditions.
Mean and Standard Error values were used to construct time-response and dose-response curves for the treated and contralateral eye of research rabbits. The data were analyzed statistically by an analysis of variance and a Bonferoni's test for significance. P<0.05 was the accepted level of significance.

Swiss-Webster mice [3] = assay: Locomotor stimulant and depressant effects in mice; settings: i.p.
Swiss-Webster mice [4] = assay: H1 receptor antagonist (triprolidine) interaction study, locomotor activity in mice; settings: mice pretreated with triprolidine 20 min before the test compound
[5] = 1% topical, drug treated eye (T), 0.5 hr
[6] = 1% topical, drug treated eye (T), 1 hr
[7] = 1% topical, drug treated eye (T), 3 hr
[8] = 1% topical, drug treated eye (T), 5 hr
[9] = 1% topical, drug treated eye (T), −1 hr (pre-treatment)
[10] = 1% topical, untreated contralateral eye (U), 0.5 hr
[11] = 1% topical, untreated contralateral eye (U), 1 hr
[12] = 1% topical, untreated contralateral eye (U), 3 hr
[13] = 1% topical, untreated contralateral eye (U), 5 hr
[14] = 1% topical, untreated contralateral eye (U), −1 hr (pre-treatment)
[15] = 2% topical, drug treated eye (T), 0.5 hr
[16] = 2% topical, drug treated eye (T), 1 hr
[17] = 2% topical, drug treated eye (T), 3 hr
[18] = 2% topical, drug treated eye (T), 5 hr
[19] = 2% topical, drug treated eye (T), −0.5 hr (pre-treatment)
[20] = 2% topical, drug treated eye (T), −1 hr (pre-treatment)
[21] = 2% topical, untreated contralateral eye (U), 0.5 hr
[22] = 2% topical, untreated contralateral eye (U), 1 hr
[23] = 2% topical, untreated contralateral eye (U), 3 hr
[24] = 2% topical, untreated contralateral eye (U), 5 hr
[25] = 2% topical, untreated contralateral eye (U), −0.5 hr (pre-treatment)
[26] = 2% topical, untreated contralateral eye (U), −1 hr (pre-treatment)
[27] = 1% topical, drug treated eye (T), −0.5 hr (pre-treatment)
[28] = 1% topical, untreated contralateral eye (U), −0.5 hr (pre-treatment)
[29] = — denotes absence of significant effect

Q: Which results are given for (+)-norpseudoephedrine?
A: effect on IOP (result in words) [1]: accompanying increase in IOP; IOP [1, 5]: 19 ± 2.4 mmHg; IOP [1, 6]: 18 ± 1.8 mmHg; IOP [1, 7]: 18 ± 2.0 mmHg; IOP [1, 8]: 17 ± 2.8 mmHg; IOP [1, 9]: 18 ± 1.0 mmHg; IOP [1, 10]: 24 ± 1.8 mmHg; IOP [1, 11]: 19 ± 1.8 mmHg; IOP [1, 12]: 18 ± 2.8 mmHg; IOP [1, 13]: 17 ± 2.8 mmHg; IOP [1, 14]: 20 ± 1.7 mmHg; IOP [1, 15]: 18 ± 2.5 mmHg; IOP [1, 16]: 20 ± 2.3 mmHg; IOP [1, 17]: 20 ± 2.0 mmHg; IOP [1, 18]: 21 ± 2.8 mmHg; IOP [1, 19]: 16 ± 2.5 mmHg; IOP [1, 20]: 19 ± 2.4 mmHg; IOP [1, 21]: 22 ± 2.0 mmHg; IOP [1, 22]: 23 ± 2.1 mmHg; IOP [1, 23]: 22 ± 2.7 mmHg; IOP [1, 24]: 24 ± 2.3 mmHg; IOP [1, 25]: 19 ± 2.5 mmHg; IOP [1, 26]: 18 ± 2.6 mmHg; mydriasis / pupil diameter (result in words) [2]: significant mydriasis; Mydriatic Responses, TREATED EYE ([2]; 1% topical): ++ (++ = 2–4 mm change); Mydriatic Responses, UNTREATED EYE ([2]; 1% topical): + (+ = 0–2 mm change); Pupil Diameter [2, 5]: 8 ± 0.2 mm; Pupil Diameter [2, 6]: 8 ± 0.2 mm; Pupil Diameter [2, 7]: 8 ± 0.2 mm; Pupil Diameter [2, 8]: 8 ± 0.2 mm; Pupil Diameter [2, 27]: 6 ± 0.2 mm; Pupil Diameter [2, 9]: 6 ± 0.2 mm; Pupil Diameter [2, 10]: 8 ± 0.2 mm; Pupil Diameter [2, 11]: 8 ± 0.2 mm; Pupil Diameter [2, 12]: 8 ± 0.2 mm; Pupil Diameter [2, 13]: 8 ± 0.2 mm; Pupil Diameter [2, 28]: 6 ± 0.2 mm; Pupil Diameter [2, 14]: 6 ± 0.2 mm; Mydriatic Responses, TREATED EYE ([2]; 2% topical): ++ (++ = 2–4 mm change); Mydriatic Responses, UNTREATED EYE ([2]; 2% topical): ++ (++ = 2–4 mm change); Pupil Diameter [2, 15]: 9 ± 0.2 mm; Pupil Diameter [2, 16]: 9 ± 0.2 mm; Pupil Diameter [2, 17]: 9 ± 0.2 mm; Pupil Diameter [2, 18]: 9 ± 0.2 mm; Pupil Diameter [2, 19]: 6 ± 0.2 mm; Pupil Diameter [2, 20]: 6 ± 0.2 mm; Pupil Diameter [2, 21]: 9 ± 0.2 mm; Pupil Diameter [2, 22]: 9 ± 0.2 mm; Pupil Diameter [2, 23]: 9 ± 0.2 mm; Pupil Diameter [2, 24]: 9 ± 0.2 mm; Pupil Diameter [2, 25]: 6 ± 0.2 mm; Pupil Diameter [2, 26]: 6 ± 0.2 mm; Depression Time: 30-min period following injection in which the maximal depression occurred (Swiss-Webster mice [3]): 10 to 40 min; Stimulation Time: 30-min period following injection in which the maximal stimulant effect occurred (Swiss-Webster mice [3]): 30 to 60 min; Stimulation Potency: dose resulting in ½ the maximal stimulant effect (ID50) (Swiss-Webster mice [3]; [29]): 12.2 mg/kg; effect of triprolidine pretreatment on stimulant or depressant effects (Swiss-Webster mice [4]): failed to show significant modification of stimulant or depressant effects

Q: For (−)-norpseudoephedrine, which “effect on IOP (result in words)” value [1] is on record?
A: Its value is “accompanying increase in IOP”.

Q: What about the IOP [1, 5] of the same substance?
A: The IOP was 17 ± 1.0 mmHg.

Q: What about the IOP [1, 6] of the same substance?
A: Its IOP is 17 ± 1.5 mmHg.

Q: And the IOP [1, 7]?
A: The IOP was 21 ± 1.6 mmHg.

Q: What about the IOP [1, 8] of the same substance?
A: Its IOP is 18 ± 1.0 mmHg.

Q: And the IOP [1, 27]?
A: The IOP was 18 ± 1.6 mmHg.

Q: What about the IOP [1, 9] of the same substance?
A: The IOP was 17 ± 1.0 mmHg.

Q: And the IOP [1, 10]?
A: The IOP was 21 ± 1.0 mmHg.

Q: What about the IOP [1, 11] of the same substance?
A: Its IOP is 18 ± 1.6 mmHg.

Q: And the IOP [1, 12]?
A: Its IOP is 20 ± 1.9 mmHg.

Q: And the IOP [1, 13]?
A: Its IOP is 23 ± 0.9 mmHg.

Q: And the IOP [1, 28]?
A: Its IOP is 20 ± 1.7 mmHg.

Q: And the IOP [1, 14]?
A: Its IOP is 17 ± 1.5 mmHg.

Q: And the IOP [1, 15]?
A: Its IOP is 15 ± 0.5 mmHg.

Q: And the IOP [1, 16]?
A: Its IOP is 18 ± 0.7 mmHg.

Q: What about the IOP [1, 17] of the same substance?
A: The IOP was 18 ± 1.1 mmHg.

Q: And the IOP [1, 18]?
A: The IOP was 18 ± 1.4 mmHg.

Q: What about the IOP [1, 19] of the same substance?
A: Its IOP is 15 ± 0.9 mmHg.

Q: And the IOP [1, 20]?
A: Its IOP is 16 ± 1.9 mmHg.

Q: What about the IOP [1, 21] of the same substance?
A: Its IOP is 16 ± 1.2 mmHg.

Q: And the IOP [1, 22]?
A: Its IOP is 19 ± 1.2 mmHg.

Q: And the IOP [1, 23]?
A: Its IOP is 22 ± 1.5 mmHg.

Q: What about the IOP [1, 24] of the same substance?
A: Its IOP is 21 ± 1.1 mmHg.

Q: And the IOP [1, 25]?
A: Its IOP is 17 ± 0.7 mmHg.

Q: And the IOP [1, 26]?
A: Its IOP is 16 ± 1.0 mmHg.

Q: What about the “mydriasis / pupil diameter (result in words)” value [2] of the same substance?
A: Its value is “significant mydriasis”.

Q: And the “Mydriatic Responses, TREATED EYE” value ([2]; 1% topical)?
A: The value was “+ (+ = 0–2 mm change)”.

Q: What about the “Mydriatic Responses, UNTREATED EYE” value ([2]; 1% topical) of the same substance?
A: Its value is “+ (+ = 0–2 mm change)”.

Q: And the “Pupil Diameter” value [2, 5]?
A: The value was 6 ± 0.2 mm.

Q: What about the “Pupil Diameter” value [2, 6] of the same substance?
A: Its value is 6 ± 0.2 mm.

Q: What about the “Pupil Diameter” value [2, 7] of the same substance?
A: The value was 6 ± 0.2 mm.

Q: What about the “Pupil Diameter” value [2, 8] of the same substance?
A: Its value is 6 ± 0.2 mm.

Q: What about the “Pupil Diameter” value [2, 27] of the same substance?
A: The value was 5 ± 0.2 mm.

Q: What about the “Pupil Diameter” value [2, 9] of the same substance?
A: The value was 5 ± 0.2 mm.

Q: And the “Pupil Diameter” value [2, 10]?
A: The value was 6 ± 0.2 mm.

Q: What about the “Pupil Diameter” value [2, 11] of the same substance?
A: The value was 6 ± 0.2 mm.

Q: And the “Pupil Diameter” value [2, 12]?
A: The value was 6 ± 0.2 mm.

Q: And the “Pupil Diameter” value [2, 13]?
A: Its value is 6 ± 0.2 mm.

Q: What about the “Pupil Diameter” value [2, 28] of the same substance?
A: The value was 5 ± 0.2 mm.

Q: What about the “Pupil Diameter” value [2, 14] of the same substance?
A: Its value is 5 ± 0.2 mm.

Q: And the “Mydriatic Responses, TREATED EYE” value ([2]; 2% topical)?
A: Its value is “++ (++ = 2–4 mm change)”.

Q: And the “Mydriatic Responses, UNTREATED EYE” value ([2]; 2% topical)?
A: Its value is “++ (++ = 2–4 mm change)”.

Q: What about the “Pupil Diameter” value [2, 15] of the same substance?
A: Its value is 9 ± 0.4 mm.

Q: And the “Pupil Diameter” value [2, 16]?
A: Its value is 9 ± 0.4 mm.

Q: And the “Pupil Diameter” value [2, 17]?
A: The value was 9 ± 0.4 mm.

Q: What about the “Pupil Diameter” value [2, 18] of the same substance?
A: The value was 9 ± 0.4 mm.

Q: What about the “Pupil Diameter” value [2, 19] of the same substance?
A: The value was 6 ± 0.4 mm.

Q: What about the “Pupil Diameter” value [2, 20] of the same substance?
A: Its value is 6 ± 0.4 mm.

Q: And the “Pupil Diameter” value [2, 21]?
A: Its value is 9 ± 0.4 mm.

Q: And the “Pupil Diameter” value [2, 22]?
A: The value was 9 ± 0.4 mm.

Q: What about the “Pupil Diameter” value [2, 23] of the same substance?
A: Its value is 9 ± 0.4 mm.

Q: And the “Pupil Diameter” value [2, 24]?
A: Its value is 9 ± 0.4 mm.

Q: And the “Pupil Diameter” value [2, 25]?
A: Its value is 6 ± 0.4 mm.

Q: What about the “Pupil Diameter” value [2, 26] of the same substance?
A: Its value is 6 ± 0.4 mm.

Q: What about the “Depression Time: 30-min period following injection in which the maximal depression occurred” value (Swiss-Webster mice [3]) of the same substance?
A: The value was 10 to 40 min.

Q: And the “Stimulation Time: 30-min period following injection in which the maximal stimulant effect occurred” value (Swiss-Webster mice [3])?
A: Its value is 40 to 70 min.

Q: And the “locomotor depressant effects, time course (result in words)” value (Swiss-Webster mice [3])?
A: The value was “locomotor depression at an earlier time (10–40 minutes following injection) and with a lower dose range”.

Q: And the “locomotor stimulant effects, time course (result in words)” value (Swiss-Webster mice [3])?
A: Its value is “Dose-dependent increases in locomotor activity of slower onset and longer duration”.

Q: What about the “Depression Potency: dose resulting in ½ the maximal depressant effect (ID50)” value (Swiss-Webster mice [3]; [29]) of the same substance?
A: Its value is 3.9 mg/kg.

Q: And the “Stimulation Potency: dose resulting in ½ the maximal stimulant effect (ID50)” value (Swiss-Webster mice [3]; [29])?
A: The value was 51.1 mg/kg.

Q: What about the “effect of triprolidine pretreatment on stimulant or depressant effects” value (Swiss-Webster mice [4]) of the same substance?
A: The value was “Significant effects for pretreatment with triprolidine”.
